Test results published in patent publication US20230086702A1, “SUBSTITUTED 2-AMINO-PYRAZOLYL-[1,2,4]TRIAZOLO[1,5A]PYRIDINE DERIVATIVES AND USE THEREOF” (The Johns Hopkins University, priority 2019, published 2023).

Experiments:
DLK = molecular target: T1, DLK (Homo sapiens, UniProt Q12852); assay: DLK biochemical assay (TR-FRET, MKK7 phosphorylation)
T1 construct: 10 nM DLK, catalytic domain, Carna Biosiences; purchased Carna Biosciences ('Carna Biosiences' [sic])
T1 sequence (Q12852 125-366 limits assumed): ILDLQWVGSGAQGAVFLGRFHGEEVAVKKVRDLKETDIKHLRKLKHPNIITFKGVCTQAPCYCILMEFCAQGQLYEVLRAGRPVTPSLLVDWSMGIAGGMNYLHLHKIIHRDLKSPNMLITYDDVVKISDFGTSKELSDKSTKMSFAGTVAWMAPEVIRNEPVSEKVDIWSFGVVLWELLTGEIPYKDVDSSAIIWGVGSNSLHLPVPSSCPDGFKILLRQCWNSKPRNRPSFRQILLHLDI
Outline: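 TR-FRET read-out (665/Eu ratio) of MKK7 T275/S277 phosphorylation, with inhibition lowering the signal. Final conditions: 10 nM DLK catalytic domain, 15 nM MKK7, 60 μM ATP, 90 min at RT. Detection incubation 16 h at 37° C in 1536-well or 4° C in 384-well format.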

LZK = molecular target: T2, LZK (Homo sapiens, UniProt O43283); assay: LZK biochemical assay (TR-FRET, MKK7 phosphorylation)
T2 construct: 10 nM LZK, catalytic domain, Carna Biosiences in assay buffer; purchased Carna Biosciences ('Carna Biosiences' [sic])
T2 sequence (O43283 168-409 limits assumed): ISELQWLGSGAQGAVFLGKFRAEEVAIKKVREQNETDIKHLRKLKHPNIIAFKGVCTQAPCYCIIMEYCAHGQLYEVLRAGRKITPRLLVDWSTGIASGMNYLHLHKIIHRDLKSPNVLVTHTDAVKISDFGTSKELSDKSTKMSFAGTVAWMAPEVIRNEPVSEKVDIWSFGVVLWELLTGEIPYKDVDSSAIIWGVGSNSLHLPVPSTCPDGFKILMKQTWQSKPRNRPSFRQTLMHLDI
Outline: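 Read-out is HTRF: Eu-labelled anti-phospho-MKK7 (T275/S277) and XL665 anti-His, incubated 16 h at 32 °C, with a drop in signal marking inhibition. Reaction beforehand: 10 nM LZK kinase domain, 15 nM His-MKK7, 15 µM ATP (final) for 90 min at room temperature, pH 7.5.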

Row | SMILES | IC50 (DLK) [nM] | IC50 (LZK) [nM]
1 | CCC(c1ccc(C(F)(F)F)nc1)n1cc(-c2cc(-c3ccnc(C4(F)CC4)c3)n3nc(N)nc3c2)cn1 (single isomer, unassigned) [II-33, 5-[2-(1-Fluorocyclopropyl)pyridin-4-yl]-7-(1-{1-[6-(trifluoromethyl)pyridin-3-yl]propyl}-1H-pyrazol-4-yl)[1,2,4]triazolo[1,5-a]pyridin-2-amine] | 17 | 7.6
2 | CN(C)c1cccc(-c2cc(-c3cnn(C(c4ccc(C(F)(F)F)nc4)C4CCOCC4)c3)cn3nc(N)nc23)c1 (racemic) [II-22, 8-[3-(Dimethylamino)phenyl]-6-(1-{tetrahydro-2H-pyran-4-yl[6-(trifluoromethyl)pyridin-3-yl]methyl}-1H-pyrazol-4-yl)[1,2,4]triazolo[1,5-a]pyridin-2-amine] | 2.2 | 6.6
3 | Cc1cc(-c2cc(-c3cnn(Cc4ccccc4)c3)cc3nc(N)nn23)cnn1 [II-88, 7-(1-Benzyl-1H-pyrazol-4-yl)-5-(6-methylpyridazin-4-yl)[1,2,4]triazolo[1,5-a]pyridin-2-amine] | 480 | 620
4 | CCC(c1ccc(C(F)(F)F)nc1)n1cc(-c2cc(-c3cc(CO)ccc3Cl)c3nc(N)nn3c2)cn1 (racemic) [II-1, {3-[2-Amino-6-(1-{1-[6-(trifluoromethyl)pyridin-3-yl]propyl}-1H-pyrazol-4-yl)[1,2,4]triazolo[1,5-a]pyridin-8-yl]-4-chlorophenyl}methanol] | 6.3 | 2.3
5 | CCC(c1ccc(C(F)(F)F)cc1)n1cc(-c2cc(-c3cnn(C)c3)c3nc(N)nn3c2)cn1 (racemic) [II-99, 8-(1-Methyl-1H-pyrazol-4-yl)-6-(1-{1-[4-(trifluoromethyl)phenyl]propyl}-1H-pyrazol-4-yl)[1,2,4]triazolo[1,5-a]pyridin-2-amine] | 9.2 | 150
6 | CCC(c1ccc(C(F)(F)F)cc1)n1cc(-c2cc(-c3cnn(CC(F)(F)F)c3)n3nc(N)nc3c2)cn1 (single isomer, unassigned) [II-130, 5-[1-(2,2,2-Trifluoroethyl)-1H-pyrazol-4-yl]-7-(1-{1-[4-(trifluoromethyl)phenyl]propyl}-1H-pyrazol-4-yl)[1,2,4]triazolo[1,5-a]pyridin-2-amine] | 120 | 670
7 | CC(C)C(c1ccc(C(F)(F)F)nc1)n1cc(-c2cc(-c3ccc(C4CC(F)(F)C4)nc3)n3nc(N)nc3c2)cn1 (single isomer, unassigned) [II-75, 5-[6-(3,3-Difluorocyclobutyl)pyridin-3-yl]-7-(1-{2-methyl-1-[6-(trifluoromethyl)pyridin-3-yl]propyl}-1H-pyrazol-4-yl)[1,2,4]triazolo[1,5-a]pyridin-2-amine] | 27 | 15
8 | Nc1nc2cc(-c3cnn(C(c4ccc(C(F)F)nc4)C4CCOCC4)c3)cc(-c3ccc(C(F)(F)F)nc3)n2n1 (single isomer, unassigned) [II-78, 7-(1-{[6-(Difluoromethyl)pyridin-3-yl](tetrahydro-2H-pyran-4-yl)methyl}-1H-pyrazol-4-yl)-5-[6-(trifluoromethyl)pyridin-3-yl][1,2,4]triazolo[1,5-a]pyridin-2-amine] | 5.2 | 5.3
9 | CCC(c1ccc(C(F)(F)F)cc1)n1cc(-c2cc(-c3cnn(CC(F)(F)F)c3)n3nc(N)nc3c2)cn1 (stereo not drawn) [II-129] | 69 | 170
10 | CCC(c1ccc(C(F)(F)F)cc1)n1cc(-c2cc(-c3cnn(CC(F)(F)F)c3)n3nc(N)nc3c2)cn1 (single isomer, unassigned) [II-131, 5-[1-(2,2,2-Trifluoroethyl)-1H-pyrazol-4-yl]-7-(1-{1-[4-(trifluoromethyl)phenyl]propyl}-1H-pyrazol-4-yl)[1,2,4]triazolo[1,5-a]pyridin-2-amine] | 25 | 165
11 | CC(C)C(c1ccc(C(F)F)nc1)n1cc(-c2cc(-c3ccc(C4CC4)nc3)n3nc(N)nc3c2)cn1 (single isomer, unassigned) [II-53, 5-(6-Cyclopropylpyridin-3-yl)-7-(1-{1-[6-(difluoromethyl)pyridin-3-yl]-2-methylpropyl}-1H-pyrazol-4-yl)[1,2,4]triazolo[1,5-a]pyridin-2-amine] | 33 | 48
12 | CC(C)C(c1ccc(C(F)F)nc1)n1cc(-c2cc(-c3ccc(C(F)(F)F)nc3)n3nc(N)nc3c2)cn1 (racemic) [II-64, 7-(1-{1-[6-(Difluoromethyl)pyridin-3-yl]-2-methylpropyl}-1H-pyrazol-4-yl)-5-[6-(trifluoromethyl)pyridin-3-yl][1,2,4]triazolo[1,5-a]pyridin-2-amine] | 40 | 59
13 | CC[C@@H](c1ccccc1)n1cc(-c2cc(-c3cnn(CCO)c3)c3nc(N)nn3c2)cn1 [II-97, 2-[4-(2-Amino-6-{1-[(1S)-1-phenylpropyl]-1H-pyrazol-4-yl}[1,2,4]triazolo[1,5-a]pyridin-8-yl)-1H-pyrazol-1-yl]ethan-1-ol] | 8.1 | 380
14 | CCC(c1ccc(C(F)F)nc1)n1cc(-c2cc(-c3ccc(C(F)(F)F)nc3)n3nc(N)nc3c2)cn1 (single isomer, unassigned) [II-62, 7-(1-{1-[6-(Difluoromethyl)pyridin-3-yl]propyl}-1H-pyrazol-4-yl)-5-[6-(trifluoromethyl)pyridin-3-yl][1,2,4]triazolo[1,5-a]pyridin-2-amine] | 440 | 220
15 | CCC(c1ccc(C(F)F)nc1)n1cc(-c2cc(-c3cnn(CC(F)(F)F)c3)c3nc(N)nn3c2)cn1 (racemic) [II-105, 6-(1-{1-[6-(Difluoromethyl)pyridin-3-yl]propyl}-1H-pyrazol-4-yl)-8-[1-(2,2,2-trifluoroethyl)-1H-pyrazol-4-yl][1,2,4]triazolo[1,5-a]pyridin-2-amine] | 9.4 | 42
16 | Nc1nc2c(-c3ccc(C(F)(F)F)nc3)cc(-c3cnn(C4CCN(C5COC5)CC4)c3)cn2n1 [II-46, 6-{1-[1-(Oxetan-3-yl)piperidin-4-yl]-1H-pyrazol-4-yl}-8-[6-(trifluoromethyl)pyridin-3-yl][1,2,4]triazolo[1,5-a]pyridin-2-amine] | 750 | 380
17 | CC[C@@H](c1ccc(C(F)(F)F)nc1)n1cc(-c2cc(-c3ccc(=O)n(CC(F)(F)F)c3)n3nc(N)nc3c2)cn1 [II-190] | 2.9 | 5.4
18 | CC(C)C(c1ccc(C(F)(F)F)nc1)n1cc(-c2cc(-c3ccc(C(F)F)nc3)n3nc(N)nc3c2)cn1 (racemic) [II-70, 5-[6-(Difluoromethyl)pyridin-3-yl]-7-(1-{2-methyl-1-[6-(trifluoromethyl)pyridin-3-yl]propyl}-1H-pyrazol-4-yl)[1,2,4]triazolo[1,5-a]pyridin-2-amine] | 26 | 15
19 | CCC(c1ccc(C(F)(F)F)nc1)n1cc(-c2cc(-c3ccn(C)c(=O)c3)c3nc(N)nn3c2)cn1 (stereo not drawn) [II-169] | 20 | 60
20 | CCC(c1ccc(C(F)(F)F)nc1)n1cc(-c2cc(-c3cccc(C(C)(C)O)c3)c3nc(N)nn3c2)cn1 (single isomer, unassigned) [II-8, 2-{3-[2-Amino-6-(1-{1-[6-(trifluoromethyl)pyridin-3-yl]propyl}-1H-pyrazol-4-yl)[1,2,4]triazolo[1,5-a]pyridin-8-yl]phenyl}propan-2-ol] | 3.7 | 7.9
21 | COc1cc(C(C(C)C)n2cc(-c3cc(-c4cnn(CC(F)(F)F)c4)n4nc(N)nc4c3)cn2)ccn1 (stereo not drawn) [II-136] | 3.4 | 48
22 | Nc1nc2cc(-c3cnn(C(c4ccc(C(F)(F)F)nc4)C4CCOCC4)c3)cc(-c3ccc(=O)n(CC(F)(F)F)c3)n2n1 (single isomer, unassigned) [II-193, 5-[2-Amino-7-(1-{tetrahydro-2H-pyran-4-yl[6-(trifluoromethyl)pyridin-3-yl]methyl}-1H-pyrazol-4-yl)[1,2,4]triazolo[1,5-a]pyridin-5-yl]-1-(2,2,2-trifluoroethyl)pyridin-2(1H)-one] | 15 | 12
23 | CCC(c1ccc(C(F)(F)F)nc1)n1cc(-c2cc(-c3ccc(C4CC4)nc3)n3nc(N)nc3c2)cn1 (single isomer, unassigned) [II-57, 5-(6-Cyclopropylpyridin-3-yl)-7-(1-{1-[6-(trifluoromethyl)pyridin-3-yl]propyl}-1H-pyrazol-4-yl)[1,2,4]triazolo[1,5-a]pyridin-2-amine] | 18 | 14
24 | CCC(c1ccc(C(F)(F)F)nc1)n1cc(-c2cc(-c3ccnc(OC(F)F)c3)c3nc(N)nn3c2)cn1 (single isomer, unassigned) [II-26, 8-[2-(Difluoromethoxy)pyridin-4-yl]-6-(1-{1-[6-(trifluoromethyl)pyridin-3-yl]propyl}-1H-pyrazol-4-yl)[1,2,4]triazolo[1,5-a]pyridin-2-amine] | 210 | 150
